The source made the active and inactive calls. The rule behind the calls is not given here.
System: rodent lifetime carcinogenesis bioassay, tumor incidence TD50
Test: carcinogenic potency in animals, long-term in vivo studies, CPDB compilation (AID 1745844)
Conditions: in feed, dosed 78 weeks

C=CCOc1ccccc1OCC(O)CNC(C)C (configuration not stated)
inactive: TD50 (mouse, strain CF-1, females, site: liver, lesion: carcinoma, study length 91 weeks) 2400 mg/kg/day | carcinogen call (mouse, strain CF-1, females, site: liver, lesion: one or several types, types not named, study length 78 weeks) negative | carcinogen call (mouse, strain CF-1, females, site: lung, lesion: adenoma, study length 91 weeks) negative | TD50 (mouse, strain CF-1, females, site: lung, lesion: carcinoma, study length 78 weeks) 425 mg/kg/day | carcinogen call (mouse, strain CF-1, females, site: lung, lesion: neurofibrosarcoma, study length 91 weeks) negative | TD50 (mouse, strain CF-1, males, site: liver, lesion: carcinoma, study length 78 weeks) 2620 mg/kg/day | TD50 (mouse, strain CF-1, males, site: liver, lesion: parenchymal adenoma, study length 91 weeks) 2120 mg/kg/day | carcinogen call (mouse, strain CF-1, males, site: lung, lesion: adenoma, study length 78 weeks) negative | carcinogen call (mouse, strain CF-1, males, site: lung, lesion: adenoma, study length 91 weeks) negative | carcinogen call (mouse, strain CF-1, males, site: lung, lesion: carcinoma, study length 78 weeks) negative | carcinogen call (rat, strain Charles River CD (Sprague-Dawley), females, site: liver, lesion: one or several types, types not named, study length 78 weeks) negative | TD50 (rat, strain Charles River CD (Sprague-Dawley), males, site: liver, lesion: hepatocellular adenoma, study length 78 weeks) 1680 mg/kg/day

Reference: PubChem BioAssay AID1745844 (Carcinogenic Potency Database (CPDB), 2022)
